In patent US9512120B2, “Microbicidally active imidazopyridine derivatives” (Syngenta Participations AG, priority 2013, dated 2016):

How the values were obtained:
[1] = system: Blumeria graminis f. Sp. Tritici (Erysiphe graminis f. Sp. Tritici); test: Blumeria graminis f. sp. tritici / wheat / leaf disc preventative (powdery mildew on wheat); type: in vivo; details: foliar, wheat leaf segments cv. Kanzler, inoculated 1 day after application, assessed 6-8 days after application, read-out: control of Blumeria graminis (percent disease control compared to untreated)
Description: Blumeria graminis f. Sp. Tritici (Erysiphe graminis f. Sp. Tritici)/Wheat/Leaf Disc Preventative (Powdery Mildew on Wheat):
Wheat leaf segments cv. Kanzler were placed on agar in a 24-well plate and sprayed with the formulated test compound diluted in water at an application rate of 200 ppm. The leaf disks were inoculated by shaking powdery mildew infected plants above the test plates 1 day after application. The inoculated leaf disks were incubated at 20° C. and 60% relative humidity under a light regime of 24 h darkness followed by 12 h/12 h (dark/light) in a climate chamber and the activity of a compound was assessed as percent disease control compared to untreated when an appropriate level of disease damage appears on untreated check leaf segments (6-8 days after application). The following compounds gave at least 80% control of Blumeria graminis at 200 ppm when compared to untreated control leaf disks under the same conditions, which show extensive disease development: 2, 13, 23, 50, 59, 61, 67, 75, 85, 86, 89, 90, 93, 102, 103, 107, 134, 136, 137, 138, 139, 141, 145, 151, 153, 154, 163, 173, 174

[2] = system: Botryotinia fuckeliana (Botrytis cinerea); test: Botryotinia fuckeliana (Botrytis cinerea) / liquid culture (gray mould); type: cell-based; details: Vogels broth, 24° C., 3-4 days after application, read-out: control of Botryotinia fuckeliana (inhibition of growth, photometric)
In short: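 Botrytis cinerea conidia in Vogels broth were added to test compound applied from DMSO at 200 ppm. Incubation at 24 °C; growth inhibition read photometrically 3-4 days after application.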

[3] = system: Mycosphaerella graminicola (Septoria tritici); test: Mycosphaerella graminicola (Septoria tritici) / liquid culture (Septoria blotch); type: cell-based; details: Zymoseptoria tritici, PDB, 24° C., 4-5 days after application, read-out: control of Mycosphaerella graminicola (inhibition of growth, photometric)
In short: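 Cryo-stored conidia in potato dextrose broth were added to compound in DMSO at 200 ppm in microtiter plates. Plates were incubated at 24 °C and growth inhibition was measured photometrically 4–5 days after application.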

[4] = system: Mycosphaerella arachidis (Cercospora arachidicola); test: Mycosphaerella arachidis (Cercospora arachidicola) / liquid culture (early leaf spot); type: cell-based; details: PDB, 24° C., 4-5 days after application, read-out: control of Mycosphaerella arachidis (inhibition of growth, photometric)
In short: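 Conidia suspended in potato dextrose broth and added to test compound from DMSO solution at 200 ppm. Incubated at 24 °C; growth inhibition read photometrically 4-5 days after application.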

[5] = system: Plasmopara viticola; test: Plasmopara viticola / grape / leaf disc preventative; type: in vivo; details: foliar, grape vine leaf disks, inoculated 1 day after application, assessed 6-8 days after application, read-out: control of Plasmopara viticola (percent disease control compared to untreated)
[6] = system: Monographella nivalis (Microdochium nivale); test: Monographella nivalis (Microdochium nivale) / liquid culture (foot rot cereals); type: cell-based; details: PDB, 24° C., 4-5 days after application, read-out: control of Monographella nivalis (inhibition of growth, photometric)
In short: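 Cryostored conidia in potato dextrose broth were added to test compound dispensed from DMSO at 200 ppm. Plates were kept at 24° C, and growth inhibition was read photometrically 4-5 days after application.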

[7] = system: Glomerella lagenarium (Colletotrichum lagenarium); test: Glomerella lagenarium (Colletotrichum lagenarium) / liquid culture (anthracnose); type: cell-based; details: Colletotrichum orbiculare, PDB, 24° C., 3-4 days after application, read-out: control of Glomerella lagenarium (inhibition of growth, photometric)
In short: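 Cryopreserved conidia suspended in potato dextrose broth were added to compound in DMSO applied at 200 ppm. Plates incubated at 24° C; growth inhibition read photometrically 3-4 days after application.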

[8] = system: Thanatephorus cucumeris (Rhizoctonia solani); test: Thanatephorus cucumeris (Rhizoctonia solani) / liquid culture (foot rot, damping-off); type: cell-based; details: PDB, 24° C., 3-4 days after application, read-out: control of Thanatephorus cucumeris (inhibition of growth, photometric)
In short: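 Mycelial fragments in potato dextrose broth exposed to test compounds at 200 ppm (from DMSO solution), incubated at 24° C. Growth inhibition read photometrically 3-4 days after application.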

[9] = system: Sclerotinia sclerotiorum; test: Sclerotinia sclerotiorum liquid culture (cottony rot / white mold); type: cell-based; details: PDB, 24° C., 3-4 days after application, read-out: control of Sclerotinia sclerotiorum (inhibition of growth, photometric)
In short: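 Mycelia fragments of Sclerotinia sclerotiorum in potato dextrose broth were added to compound in DMSO. Cultures incubated at 24° C; growth inhibition determined photometrically 3-4 days after application.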

[10] = system: Puccinia recondita f. sp. Tritici; test: Puccinia recondita f. sp. tritici / wheat / leaf disc preventative (brown rust); type: in vivo; details: foliar, wheat leaf segments cv Kanzler, inoculated 1 day after application, assessed 7-9 days after application, read-out: control of Puccinia recondita f. sp. Tritici (percent disease control compared to untreated)
In short: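 Leaf segments of wheat cv Kanzler on agar were sprayed with formulated compound at 200 ppm and inoculated with spores 1 day later. Incubation was at 19° C, 75% relative humidity and 12/12 h light/dark. Activity was scored 7-9 days after application as percent disease control versus untreated.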

[11] = system: Gaeumannomyces graminis; test: Gaeumannomyces graminis / liquid culture (take-all of cereals); type: cell-based; details: PDB, 24° C., 4-5 days after application, read-out: control of Gaeumannomyces graminis (inhibition of growth, photometric)
In short: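 Mycelial fragments in potato dextrose broth were exposed to compound from DMSO at 200 ppm in microtiter plates. Incubation at 24 °C; growth inhibition read photometrically 4-5 days after application.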

[12] = system: Pyrenophora teres; test: Pyrenophora teres / barley / leaf disc preventative (net blotch); type: in vivo; details: foliar, barley leaf segments cv Hasso, inoculated two days after application, assessed 5-7 days after application, read-out: control of Pyrenophora teres (disease control compared to untreated)
In short: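 Barley cv Hasso leaf segments on agar sprayed with compound at 200 ppm, inoculated with spores two days later. Kept at 20 °C, 65% RH, 12/12 h light; disease control versus untreated scored 5-7 days after application.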

[13] = system: Phaeosphaeria nodorum (Septoria nodorum); test: Phaeosphaeria nodorum (Septoria nodorum) / wheat / leaf disc preventative (glume blotch); type: in vivo; details: Parastagonospora nodorum, foliar, wheat leaf segments cv Kanzler, inoculated 2 days after application, assessed 5-7 days after application, read-out: control of Phaeosphaeria nodorum (percent disease control compared to untreated)
In short: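 Wheat leaf segments (cv Kanzler) on agar sprayed with compound at 200 ppm, inoculated with spores 2 days later. Incubated at 20° C., 75% relative humidity, 12/12 h light/dark; percent disease control versus untreated scored 5-7 days after application.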

[14] = system: Pythium ultimum; test: Pythium ultimum / liquid culture (seedling damping off); type: cell-based; details: Globisporangium ultimum, potato dextrose broth, 24° C., 2-3 days after application, read-out: control of Pythium ultimum (inhibition of growth, photometric)
Description: Pythium ultimum/Liquid Culture (Seedling Damping Off) Mycelia fragments and oospores of a newly grown liquid culture of the fungus were directly mixed into nutrient broth (potato dextrose broth). After placing a DMSO solution of test compound into a 96-well format microtiter plate at an application rate of 200 ppm, the nutrient broth containing the fungal mycelia/spore mixture was added. The test plates were incubated at 24° C. and the inhibition of growth was determined photometrically 2-3 days after application.

melting point [°C] | SMILES | pest or weed control at 200 ppm [1] [%] | inhibition at 20 ppm [2] [%] | inhibition at 20 ppm [3] [%] | inhibition at 20 ppm [4] [%] | pest or weed control at 200 ppm [5] [%] | inhibition at 20 ppm [6] [%] | inhibition at 20 ppm [7] [%] | inhibition at 20 ppm [8] [%] | inhibition at 20 ppm [9] [%] | pest or weed control at 200 ppm [10] [%] | inhibition at 20 ppm [11] [%] | pest or weed control at 200 ppm [12] [%] | pest or weed control at 200 ppm [13] [%] | inhibition at 20 ppm [14] [%]
 | CCn1c(-n2ncnc2N)nc2cncc(C(C)=NOCc3ccc(C)cc3)c21 [Compound 139] | ≥ 80 | ≥ 80 | ≥ 80 | ≥ 80 | ≥ 80 | ≥ 80 | ≥ 80 | ≥ 80 | ≥ 80 | ≥ 80 | ≥ 80 | ≥ 80 |  | 
 | CCn1c(-n2ncnc2N)nc2cncc(C(C)=NOCc3ccc(Cl)cc3)c21 [Compound 145] | ≥ 80 | ≥ 80 | ≥ 80 |  | ≥ 80 | ≥ 80 | ≥ 80 | ≥ 80 | ≥ 80 | ≥ 80 |  | ≥ 80 | ≥ 80 | 
 | CCn1c(-n2ncnc2N)nc2cncc(-c3ccoc3)c21 [Compound 55, 2-[1-ethyl-7-(furan-3-yl)imidazo[4,5-c]pyridin-2-yl]-1,2,4-triazol-3-amine] |  | ≥ 80 | ≥ 80 | ≥ 80 |  | ≥ 80 | ≥ 80 | ≥ 80 |  | ≥ 80 | ≥ 80 | ≥ 80 | ≥ 80 | ≥ 80
 | C=C(Cl)CO/N=C(/C)c1cncc2nc(-n3ncnc3N)n(CC)c12 [Compound 151] | ≥ 80 | ≥ 80 | ≥ 80 |  | ≥ 80 | ≥ 80 | ≥ 80 | ≥ 80 | ≥ 80 | ≥ 80 |  | ≥ 80 | ≥ 80 | 
 | CCn1c(-n2ncnc2N)nc2cncc(C(C)=NOCc3c(F)c(F)c(F)c(F)c3F)c21 [Compound 163] | ≥ 80 | ≥ 80 | ≥ 80 | ≥ 80 | ≥ 80 |  | ≥ 80 | ≥ 80 |  | ≥ 80 |  | ≥ 80 |  | 
 | CCn1c(-n2ncnc2N)nc2cncc(-c3cc(F)ccc3F)c21 [Compound 39, 2-[7-(2,5-difluorophenyl)-1-ethylimidazo[4,5-c]pyridin-2-yl]-1,2,4-triazol-3-amine] |  | ≥ 80 | ≥ 80 | ≥ 80 |  | ≥ 80 | ≥ 80 | ≥ 80 | ≥ 80 |  | ≥ 80 | ≥ 80 | ≥ 80 | ≥ 80
 | CCCc1cncc2nc(-n3ncnc3N)n(CCC)c12 [Compound 190, 2-(1,7-dipropylimidazo[4,5-c]pyridin-2-yl)-1,2,4-triazol-3-amine] |  | ≥ 80 | ≥ 80 |  |  | ≥ 80 |  | ≥ 80 | ≥ 80 | ≥ 80 | ≥ 80 | ≥ 80 | ≥ 80 | ≥ 80
159 to 171 | CCn1c(-n2ncnc2N)nc2cncc(C(C)=NOCc3ccccc3F)c21 [Compound 137] | ≥ 80 | ≥ 80 | ≥ 80 |  | ≥ 80 | ≥ 80 | ≥ 80 | ≥ 80 | ≥ 80 | ≥ 80 | ≥ 80 | ≥ 80 | ≥ 80 | 
 | CCn1c(-n2ncnc2N)nc2cncc(-c3ccccc3Cl)c21 [Compound 33, 2-[7-(2-chlorophenyl)-1-ethylimidazo[4,5-c]pyridin-2-yl]-1,2,4-triazol-3-amine] |  | ≥ 80 | ≥ 80 | ≥ 80 |  | ≥ 80 | ≥ 80 | ≥ 80 | ≥ 80 | ≥ 80 |  | ≥ 80 | ≥ 80 | ≥ 80
 | CCCc1cncc2nc(-n3ncnc3N)n(CC)c12 [Compound 73, 2-(1-ethyl-7-propylimidazo[4,5-c]pyridin-2-yl)-1,2,4-triazol-3-amine] |  | ≥ 80 | ≥ 80 | ≥ 80 |  | ≥ 80 |  | ≥ 80 | ≥ 80 | ≥ 80 | ≥ 80 | ≥ 80 | ≥ 80 | ≥ 80
 | CCn1c(-n2ncnc2N)nc2cncc(/C(C)=N/OC/C=C(\C)Cl)c21 [Compound 154, 2-[7-[(E)-N-[(E)-3-chlorobut-2-enoxy]-C-methyl-carbonimidoyl]-1-ethyl-imidazo[4,5-c]pyridin-2-yl]-1,2,4-triazol-3-amine] | ≥ 80 | ≥ 80 | ≥ 80 |  | ≥ 80 |  | ≥ 80 | ≥ 80 | ≥ 80 | ≥ 80 |  | ≥ 80 |  | 
